Converted amounts (≈) assume the structure as drawn. Numbered stars: 1 amine (or outer) side, 2 acyl side, 3 side chain; on linkers, the order of the positions; unused ones are H or OH. Square brackets hold non-standard residues; d marks the D form. Peptide text beside a SMILES is read from it. dAla(ψthiazole) = C[C@@H](N[*:1])c1nc(C(=O)[*:2])cs1; Trp(4-OMe) = COc1cccc2[nH]cc(C[C@H](N)C(=O)O)c12; X1 = CC(=O)[C@](C)(N[*:1])C(=O)[*:2]; dNMeY = CN[C@H](Cc1ccc(O)cc1)C(=O)O; Dhb = C/C=C(\N)C(=O)O; Sar = CNCC(=O)O

By IC50 is commonly meant the concentration that inhibits the measured activity by half. What is called CC50 is the concentration giving 50% cytotoxicity. Usually EC50 stands for the concentration giving half of the maximal effect. In general, EC90 refers to the concentration needed for an effect of 90%.

Series [1] concerns SARS-CoV-2. Nature of the series: Antiviral activity against SARS-CoV-2 B.1.1.7 infected in human Calu-3 cells assessed as inhibition of viral infection measured after 48 hrs by Hoechst 33342 staining based analysis. The format is functional, organism-based. As to conditions: Severe acute respiratory syndrome coronavirus 2, B.1.1.7, Calu-3, 48 h.
Series [2] deals with SARS-CoV-2. Nature of the series: Antiviral activity against SARS-CoV-2 […] B.1.351 Beta infected in human 293TA cells assessed as reduction of viral growth measured after 48 hrs by luciferase assay. Type of series: functional, organism-based. Conditions: Severe acute respiratory syndrome coronavirus 2, […] B.1.351 Beta.
Series [3] has as its system Calu-3. In words: Cytotoxicity against human Calu-3 cells assessed as reduction in cell viability measured after 48 hrs by Hoechst 33342 staining based analysis. The format is functional.
The target in series [4] is T1, Replicase polyprotein 1ab (Severe acute respiratory syndrome coronavirus 2, UniProt P0DTD1). Nature of the series: Inhibition of SARS-CoV-2 3CL protease by FRET assay.
Series [5] relates to Human immunodeficiency virus 1. In words: Antiviral activity against HIV1 infected in C8166 cells assessed as reduction in viral replication measured after 3 days by ELISA. Type of series: functional, organism-based. A general note: In an ELISA, binding on a coated surface is turned into a signal by an enzyme label.
A short description of series [6]: Cytotoxicity against human C8166 cells assessed as reduction in cell growth by MTT assay. The format is toxicity, cell-based.
The test system of series [7] is Human immunodeficiency virus 1. Nature of the series: Antiviral activity against HIV1. The format is functional, organism-based.
Series [8] concerns Human immunodeficiency virus 1. In words: Antiviral activity against HIV-1 infected in human MT4 cells assessed as reduction in viral replication. As to conditions: Human immunodeficiency virus 1, MT4. Type of series: functional.
Series [9] addresses Human immunodeficiency virus type 1 protease (Human immunodeficiency virus 1, UniProt Q72874). Nature of the series: Inhibition of HIV-1 protease.
Series [10] has as its system SARS-CoV-2. In words: microbe, parasite or virus in culture. As to conditions: Severe acute respiratory syndrome coronavirus 2, NRC-03-nhCoV, Vero C1008, 72 h.
Series [11] is described as follows: Cytotoxicity against African green monkey Vero E6 cells assessed as reduction in cell growth incubated for 24 hrs by WST-8 assay. Type of series: toxicity, cell-based, Vero C1008. As to conditions: chlorocebus sabaeus. For orientation: Tetrazolium assays rely on reduction of a dye to a coloured formazan, in cell work by metabolically active cells.
Series [12] addresses T1, Replicase polyprotein 1ab. In words: Inhibition of SARS-CoV-2 3CL protease.
Series [13] concerns Human immunodeficiency virus 2. Nature of the series: Antiviral activity against wild type HIV-2 CBL-20 infected in human MT4 cells assessed as protection against virus-induced cytopathic effect incubated for 5 days by MTT assay. The format is functional, organism-based. As to conditions: Human immunodeficiency virus 2, CBL-20, MT4, 120 h. (In general: Protection from cytopathic effect is a common read-out in antiviral testing.)

Series [14] relates to Human immunodeficiency virus 2. Nature of the series: Antiviral activity against HIV-2 ROD infected in C8166 cells assessed as reduction in viral replication measured after 3 days by ELISA. As to conditions: Human immunodeficiency virus 2, ROD, C8166, 72 h. Type of series: functional, organism-based.
In series [15] the test system is Human immunodeficiency virus 1. Nature of the series: Antiviral activity against HIV1 9495 infected in human C8166 cells assessed as protection against virus-induced cytopathic effect incubated for 5 days by MTT assay. The format is functional, organism-based. As to conditions: Human immunodeficiency virus 1, 9495, C8166, 120 h.
The nature of series [16]: Cytotoxicity against human MT4 cells assessed as reduction in cell viability incubated for 5 days by MTT assay. Type of series: toxicity, cell-based. Conditions: time 5 day.
Series [17] has as its system Human immunodeficiency virus 1. Nature of the series: Antiviral activity against HIV1 A17 infected in human C8166 cells assessed as protection against virus-induced cytopathic effect incubated for 5 days by MTT assay. As to conditions: Human immunodeficiency virus 1, A17, C8166, 120 h. Type of series: functional, organism-based.
For series [18], the system named is Human immunodeficiency virus 1. In words: Antiviral activity against wild type HIV-1 IIIB infected in human MT4 cells assessed as protection against virus-induced cytopathic effect incubated for 5 days by MTT assay. As to conditions: Human immunodeficiency virus 1, IIIB, MT4, 120 h. Type of series: functional, organism-based.
For series [19], the system named is Human alphaherpesvirus 1. Nature of the series: Antiviral activity against HSV-1 at 25 uM relative to control. The format is functional.
Series [20] deals with Human alphaherpesvirus 1. Nature of the series: Antiviral activity against HSV-1 106 infected in African green monkey Vero cells assessed as reduction in virus induced cytopathogenicity by plaque reduction assay. Type of series: functional, organism-based. Conditions: Human alphaherpesvirus 1, 106, Vero.
The test system of series [21] is Human alphaherpesvirus 1. Nature of the series: Antiviral activity against HSV-1 153 infected in African green monkey Vero cells assessed as reduction in virus induced cytopathogenicity by plaque reduction assay. The format is functional, organism-based. Conditions: Human alphaherpesvirus 1, 153, Vero.
Series [22] is described as follows: Cytotoxicity against African green monkey Vero cells assessed as reduction in cell viability measured after 72 hrs by MTT assay. The format is toxicity, cell-based. As to conditions: chlorocebus sabaeus.
Series [23] deals with Human alphaherpesvirus 1. In words: Antiviral activity against HSV-1 KOS infected in African green monkey Vero cells assessed as reduction in virus induced cytopathogenicity by plaque reduction assay. The format is functional, organism-based. Conditions: Human alphaherpesvirus 1, KOS.
Series [24] deals with Human alphaherpesvirus 1. Nature of the series: Antiviral activity against HSV-1 blue infected in African green monkey Vero cells assessed as reduction in virus induced cytopathogenicity by plaque reduction assay. The format is functional, organism-based. Conditions: Human alphaherpesvirus 1, blue.
Series [25] deals with Human immunodeficiency virus 2. In words: Antiviral activity against HIV-2 ROD infected in human MT4 cells assessed as protection against virus induced cytopathic effect and measured after 5 days by MTT spectrophotometric assay. Type of series: functional, organism-based. As to conditions: Human immunodeficiency virus 2, ROD, MT4, 120 h.
Series [26] relates to Influenza A virus. Nature of the series: Antiviral activity against influenza A virus (H1N1/A/WSN/33) infected in MDCK cells assessed as inhibition of cytopathic effect incubated for 48 hrs by MTT assay. Type of series: functional, organism-based. Conditions: H1N1/A/WSN/33, MDCK.
Series [27] has as its system SARS-CoV-2. Nature of the series: Antiviral activity against SARS-CoV-2 RG2674 infected in African green monkey Vero cells assessed as reduction in virus-induced cytopathic effect incubated for 5 days by microscopic analysis. The format is functional, organism-based. As to conditions: Severe acute respiratory syndrome coronavirus 2, RG2674, Vero, 120 h.
The target of series [28] is Human immunodeficiency virus type 1 reverse transcriptase (Human immunodeficiency virus 1, UniProt Q72547). In words: Inhibition of HIV-1 NL4-3 reverse transcriptase by RT-PCR analysis.
The test system of series [29] is A549. Nature of the series: Cytotoxicity against human A549 cells assessed as reduction in cell growth incubated for 5 days by MTS assay. The format is functional. As to conditions: A549, 120 h, time 5 day.
In series [30] the test system is Human alphaherpesvirus 1. In words: Antiviral activity against HSV-1 infected in African green monkey Vero cells by plaque reduction assay. The format is functional, organism-based. As to conditions: Human alphaherpesvirus 1, Vero.
Series [31] concerns Human alphaherpesvirus 3. Nature of the series: Antiviral activity against VZV infected HFF cells assessed as reduction in viral replication. Type of series: functional, organism-based. Conditions: Human alphaherpesvirus 3, HFF.
Series [32] relates to Human alphaherpesvirus 2. In words: Antiviral activity against HSV-2 186 infected in African green monkey Vero cells assessed as reduction in virus induced cytopathogenicity by plaque reduction assay. Type of series: functional, organism-based. As to conditions: Human alphaherpesvirus 2, Vero.

For `CC(C)=CCC/C(C)=C/COc1c2ccoc2cc2oc(=O)ccc12` [BERGAMOTTIN], the IC50 in series [1] was 8.15 µM; in [2] it was 14.2 µM; in series [4] it was 9.64 µM. Moreover, the CC50 in series [3] was over 100 µM.
For the molecule `CC(C)CC(=O)O[C@H]1/C=C/C=C\C(=O)O[C@H]2[C@@H](C)C[C@@H]3[C@]2(O)[C@H](O)[C@@]2(CO)O[C@H]2[C@H]2[C@H]4OC5(c6ccccc6)O[C@@H]([C@@H](C)[C@@]23O5)[C@@]4(O)[C@](C)(O)C[C@H]2CC[C@H]1[C@H]2C`, the EC50 in series [5] is 0.76 10^-3nmol. For the same molecule, in series [6], the CC50 came to 0.0222 µM.
In turn, `O=c1cc(-c2ccc(O)c(-c3c(O)cc(O)c4c(=O)cc(-c5ccc(O)cc5)oc34)c2)oc2cc(O)cc(O)c12` [AMENTOFLAVONE] showed an EC50 in [7] of 8.3 µM.
For the molecule `C=C(C)[C@]12C[C@@H](COC(C)=O)[C@@]3(OO1)[C@@H]1[C@H]2OCCCCCC[C@@H](C)[C@H]2[C@H](C)[C@H](OC(=O)c4ccccc4)[C@@](O)([C@H](O)[C@@]4(CO)O[C@@H]14)[C@@H]23`, the EC90 in [8] came to 0.0004 µM. The molecule also displayed a half-maximal inhibitory concentration (IC50) in series [9] of 4.3 µM.
In turn, `O=C(O)[C@H]1O[C@@H](Oc2cc3oc(-c4ccccc4)cc(=O)c3c(O)c2O)[C@H](O)[C@@H](O)[C@@H]1O` [BAICALIN] yielded an EC50 in [10] of 27.9 µM. In addition, the CC50 at 24 h in [11] was over 200 µM.
Take `COc1cc(O)c(C(=O)[C@@H]2[C@H](CC=C(C)C)C(C)=CC[C@H]2c2ccccc2)c(O)c1` [PANDURATIN A]: in [11], the CC50 at 24 h turned out to be 14.7 µM. The molecule further showed a half-maximal inhibitory concentration (IC50) in series [12] of 0.81 µM.
For the molecule `C=C(C)[C@]1(O)C[C@@H](C)[C@@]2(O)[C@H]([C@H]1OC(=O)/C=C/C=C/CCCCC)[C@@H]1O[C@]1(CO)[C@@H](O)[C@]1(O)C(=O)C(C)=C[C@H]12`, the EC50 turned out to be 0.0319 µg/mL (≈ 0.0584 µM) in [13]; 0.0189 µg/mL (≈ 0.0345 µM) in [14]; 0.0157 µg/mL (≈ 0.0286 µM) in [15]; 0.00381 µg/mL (≈ 0.00697 µM) in series [17]; 0.00872 µg/mL (≈ 0.016 µM) in [18]. Also, the cytotoxic concentration (CC50) at 120 h in series [16] stood at 65.6 µg/mL (≈ 120 µM).
`C=C1CC[C@]2(O)[C@H]1CC1=C(C)C(=O)OC1=C[C@]2(C)O`: the Activity in series [19] is on record as 69.2%.
On to `COc1ccc(C[C@@H]2NC(=O)[C@@H]3CCCN3C(=O)[C@H](C(C)C)NC(=O)[C@@H](Cc3ccc(O)cc3)N(C)C(=O)[C@H](Cc3ccc(OC)cc3)NC2=O)cc1` (cyclo(PY(Me)Y(Me)[dNMeY]V)), for which the concentration giving a half-maximal response (EC50) in series [20] stood at 10.4 µM; in series [21], 8.28 µM; in series [23], 7.9 µM; in series [24], 7.9 µM. For the same molecule, the CC50 at 72 h in [22] was 209 µM.
On to `C=C(C)[C@@]12O[C@@]3(/C=C/C=C/C=C/CCC)O[C@@H]1[C@@H]1[C@@H]4O[C@]4(CO)[C@@H](O)[C@]4(O)C(=O)C(C)=C[C@H]4[C@@]1(O3)[C@H](C)[C@H]2OC(=O)/C=C/c1ccc(O)cc1`, for which, in [25], the concentration for a half-maximal effect (EC50) is over 0.034 µM.
As to `C/C=C1\NC(=O)[C@@H](C)NC(=O)CNC(=O)[C@](C)(C(C)=O)NC(=O)[C@H](Cc2c[nH]c3cccc(OC)c23)NC(=O)c2csc(n2)[C@@H](C)NC(=O)CN(C)C1=O` (cyclo([Dhb][Sar][dAla(ψthiazole)][Trp(4-OMe)][X1]G[dA])), the half-maximal effective concentration (EC50) in series [26] came to 0.3 µM.
Turning to `Nc1ncnc2c1ncn2[C@@H]1O[C@H](CO)C[C@H]1O` [CORDYCEPIN], the EC50 in series [27] amounted to 2 µM.
Regarding `COc1ccc(C[C@@H](CO)[C@H](COC(C)=O)Cc2ccc(OC)c(OC)c2)cc1OC`, the IC50 in series [28] was 12.2 µM. Besides, the cytotoxic concentration (CC50) in [29] came to 11.6 µg/mL (≈ 26.8 µM).
In the case of `CCCCCCCCCc1oc2c(O)ccc(-c3oc4cc(O)cc(O)c4c(=O)c3O[C@@H]3O[C@H](CO)[C@H](O)[C@H](O)[C@H]3O)c2c1C=O`, the 50% effective concentration (EC50) in [30] was found to be 23.5 µM; in series [31], 23.5 µM; in [32] it was 36.4 µM. Further, in series [22], the CC50 at 72 h stood at 166 µM.
